Legend:
[1] = biological target: T1, β2-GPI and anti-β2-GPI antibodies (Cof-22, WB-CAL-1, EY2C9) (Homo sapiens, UniProt P02749); assay: TLC ligand blot with β2-GPI and anti-β2-GPI antibodies; type: binding; details: result in words
T1 construct: β2-GPI was purified from normal human plasma as described in [35] with slight modification; from tissue; host or cells: β2-GPI from pooled normal human plasma
T1 sequence (P02749 20-345): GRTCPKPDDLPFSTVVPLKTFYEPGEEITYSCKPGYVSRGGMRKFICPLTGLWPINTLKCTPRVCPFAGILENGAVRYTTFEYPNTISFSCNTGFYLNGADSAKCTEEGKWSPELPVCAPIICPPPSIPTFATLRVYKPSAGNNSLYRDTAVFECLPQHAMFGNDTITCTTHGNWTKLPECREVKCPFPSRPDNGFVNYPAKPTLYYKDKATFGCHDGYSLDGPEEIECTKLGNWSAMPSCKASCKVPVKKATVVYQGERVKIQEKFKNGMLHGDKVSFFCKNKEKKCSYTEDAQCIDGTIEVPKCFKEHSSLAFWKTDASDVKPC
From the text: Extracted lipids were spotted on a Polygram silica gel plate (product of Machery-Nagel) and developed in chloroform/methanol/30% ammonia/water (120:80:10:5, v/v/v/v, hereinafter referred to as solvent A). The plate was stained with I2 vapor, or with a spray of molybdenum blue, of 2N sulfuric acid containing 2% orcin, or of glacial acetic acid/sulfuric acid (19:1, v/v) (Lieberman-Burchard reaction). Alternatively, the developed plate was subjected to ligand blot with β2-GPI and an anti-β2-GPI antibody. TLC plates were blocked with PBS containing 1% bovine serum albumin (BSA) and were subsequently incubated with β2-GPI, anti-β2-GPI antibodies (Cof-22, WB-CAL-1, or EY2C9), and HRP-labeled anti-mouse IgG antibodies or anti-human IgM antibodies for one hour. In each step, plates were extensively washed with PBS. The color was developed with H2O2 and 4-methoxy-1-naphtol (product of Aldrich). The ligand-enriched bands scraped from the TLC plate were subjected to another TLC in chloroform/methanol (8:1, v/v) (hereinafter referred to as solvent B). […]
A fraction rich in a ligand (originating from oxLDL) obtained by two-step TLC was analyzed by reversed phase HPLC on a Sephasil Peptide C-18 5-μm column (4.6 mm×250 mm; product of Amersham-Pharmacia Biotech). […]

β2-GPI = biological target: T2, β2-GPI (Homo sapiens, UniProt P02749); assay: ELISA on solid-phase lipid (ligand)-coated plate: β2-GPI binding detected with Cof-22
T2 construct: β2-GPI was purified from normal human plasma as described in [35] with slight modification; from tissue; host or cells: pooled normal human plasma from healthy subjects
T2 sequence (P02749 20-345): T1 sequence (P02749 20-345)
Procedure: (§1) Binding to extracted lipids: A microtiter plate (Immulon 1B, Dynex Technologies Inc.) was coated with lipids extracted from LDLs (50 μg/mL, 50 μL/well) by ethanol evaporation. The wells were blocked with PBS containing 1% BSA for one hour and the wells were incubated with 30 μg/mL of β2-GPI for one hour. Then, β2-GPI binding was detected using Cof-22 and HRP-labeled anti-mouse IgG antibodies. Alternatively, an anti-β2-GPI autoantibody (Cof-22, WB-CAL-1, or EY2C9) was diluted with a 0.3% BSA-containing PBS, and the diluted antibody was added to the coated plate (1.0 μg/mL, 100 μL/well) and incubated with β2-GPI (15 μg/mL) for one hour. The binding of the antibody was detected by an HRP-labeled anti-mouse IgG /or an anti-human IgM. The color was developed with H2O2 and o-phenylenediamine, and OD was measured at 490 nm. Between these steps, extensive washing were done using PBS containing 0.05% Tween 20.
(§2) Synthesized oxLig-1 (50 μg/mL, 50 μL/well) was adsorbed by evaporation on a polystyrene plate (Immulon 1B; Dynex Technologies Inc.), and the plate was then blocked with 1% BSA. Serum samples (diluted 1:100 with PBS containing 0.3% BSA) were incubated in the wells with β2-GPI (15 μg/mL) or other proteins for one hour at room temperature. Antibody binding was detected with HRP-labeled anti-human IgG. Further steps were performed through a method as described in “anti-β2-GPI ELISA.”
(§3) CL (50 μg/mL, 50 μL/well) was adsorbed on a polystyrene plate (Immulon 1B), and further steps were performed through a method as described in “ELISA for antibodies against a protein-oxLig-1 complex.”

APS-2 = assay: ELISA on solid-phase lipid-coated plate: binding of antibodies of APS patient serum APS-2; parameters: species or system human; details: Experiment 1; Absorbance, mean ± SD, n = 3; solid-phase lipid, β2-GPI 15 μg/mL; serum with β2-GPI removed
Procedure: To eliminate endogenous β2-GPI in some experiments, serum samples were passed through a heparin-Sepharose column. The effluent was dialyzed against PBS and was used for ELISAs.
as §2, §3

EY2C9 = assay: ELISA on solid-phase lipid (ligand)-coated plate: EY2C9 binding in presence of β2-GPI; parameters: species or system human
Procedure: as §1, §2, §3

[2] = Experiment 1, Absorbance, mean ± SD, n = 3, solid-phase lipid, β2-GPI 15 μg/mL
[3] = absorbance at 490 nm, mean ± SD (n = 3), solid-phase ligand not methylated

## CC(C)CCC[C@@H](C)[C@H]1CC[C@H]2[C@@H]3C(=O)C=C4C[C@@H](OC(=O)CCCCCCCC(=O)O)CC[C@]4(C)[C@H]3CC[C@]12C [oxLig-1, 9-oxo-9-(7-ketocholest-5-en-3β-yloxy)nonanoic acid]
[1]
  ligand blot: interaction of β2-GPI and anti-β2-GPI antibodies with ligand: positively stained
[1]; listed as Synthesized oxLig-1
  ligand blot: interaction of β2-GPI and anti-β2-GPI antibodies with ligand: same Rf position and binding characteristics
β2-GPI; [2]
  Binding of β2-GPI-dependent aCL, Cof-22: 1.066 ± 0.114
β2-GPI; [3]
  β2-GPI binding (Cof-22 binding), No treatment: 1.307 +/− 0.105
β2-GPI; result in words (discussion)
  β2-GPI binding to lipid: significant bonding
APS-2
  Binding of β2-GPI-dependent aCL, APS-2: 1.222 ± 0.057
EY2C9; [2]
  Binding of β2-GPI-dependent aCL, EY2C9: 0.915 ± 0.072
EY2C9; [3]
  EY2C9 binding, No treatment: 1.458 +/− 0.062
